Patent EP0598011B1, “ECDYSTEROID DEPENDENT REGULATION OF GENES IN MAMMALIAN CELLS” (GENENTECH, INC., priority 1991, dated 1993)

Key:
EcEcEc = EcEcEc (Drosophila melanogaster, UniProt P34021); experiment: Induction of GRE reporter G4M-77CO by EcEcEc (DHR23α) in 293 cells; format: cell-based; design: To isolate the full-length DHR23α clones; expressed in transfected cells; host or cells: human 293 cells; details: receptor EcEcEc, normalized to hGH, SD in parentheses, 2880 min
Method: "G" and "Ec" refer to the glucocorticoid receptor and DHR23α, respectively.
293 cells were transfected with effector plasmids encoding the indicated receptor proteins and the reporter gene G4M-77CO. These transfected cells were incubated either without added hormone (-), with muristerone A (M) or with dex (D).

X4C-33CO = experiment: Lex-operator reporter X4C-33CO, control effector plasmid without receptor cDNA; format: cell-based; details: SD in parentheses
From the text: (§1) Such fusion constructs are expected to be useful in regulating the expression of exogenous genes introduced into transgenic mammals or mammalian cells. I next determined if the DHR23α ligand-binding domain could be used to regulate the activity of a DNA-binding domain not normally expressed in mammalian cells. I constructed the chimeric gene GLxEc by replacing the sequences coding for the GR DNA-binding domain in the GGEc fusion with those encoding the DNA-binding domain of the Escherichia coli LexA repressor (J. W. Little and S. A. Hill, Proc. Natl. Acad. Sci. U.S.A. 82, 2301 [1985]) (Fig. 4). A reporter gene, X4C-33CO was constructed that contains 4 copies of a 26-bp lex operator (R. Brent and M. Ptashne, Nature 312, 612 [1984]) at position -33 of the CMV promoter. GLxEc had no effect on the expression of a OC-33CO, a reporter gene lacking the lex operator (Fig. 6B).
(§2) Illustrated in Table 2 is the transcriptional activation by receptor-LexA fusion proteins. Effector plasmids encoding the indicated receptor proteins were transfected with a reporter gene either containing (X4C-33CO) or lacking (OC-33CO) lex-operators. […] The cells were incubated either with (+) or without (-) muristerone A. The fold induction was determined as described previously; the standard deviations are shown in parenthesis.

VXEc [1] = target: T1, VXEc (Drosophila melanogaster, UniProt P34021); experiment: Reporter OC-33CO lacking lex-operators with VXEc; format: cell-based; details: receptor VXEc, SD in parentheses
T1 construct: expressed in transfected cells
T1 sequence (P34021 329-878): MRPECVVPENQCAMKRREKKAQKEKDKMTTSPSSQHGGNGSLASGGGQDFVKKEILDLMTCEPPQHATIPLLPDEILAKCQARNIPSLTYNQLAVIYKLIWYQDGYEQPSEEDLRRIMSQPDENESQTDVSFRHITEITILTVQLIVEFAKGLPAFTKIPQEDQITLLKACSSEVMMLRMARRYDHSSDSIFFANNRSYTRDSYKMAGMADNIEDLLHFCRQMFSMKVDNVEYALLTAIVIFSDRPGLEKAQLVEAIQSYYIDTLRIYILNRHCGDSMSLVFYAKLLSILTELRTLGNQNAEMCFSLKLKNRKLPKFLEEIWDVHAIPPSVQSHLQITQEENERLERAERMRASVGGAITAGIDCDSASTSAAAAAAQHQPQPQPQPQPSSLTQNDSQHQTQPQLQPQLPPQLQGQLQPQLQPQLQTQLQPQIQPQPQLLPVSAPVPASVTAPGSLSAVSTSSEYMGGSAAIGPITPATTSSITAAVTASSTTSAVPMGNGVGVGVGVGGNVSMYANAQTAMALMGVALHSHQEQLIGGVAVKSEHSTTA
From the text: (§3) Finally, I determined if the activity of DHR23α fusion proteins could be further enhanced by inclusion of a potent viral transactivation domain. I constructed VGEc and VLxEc fusion genes by replacing a portion of the GR N-terminal activation domain in GGEc and GLxEc, respectively, with the herpes virus VP16 acidic activation domain (I. Sadowski et al., […]. 335, 563 [1988]; D. J. Cousens, R. Greaves, C. R. Coding, and P. O'Hare, EMBO J. 8, 2337 [1989]) (Fig. 4A). In transfected cells, these proteins accumulated to similar levels as derivatives lacking the VP16 activation domain (Fig. 4B). Both VGEc and VLxEc acted in an ecdysteroid-dependent fashion to induce activity of the appropriate reporter gene (Tables 1 and 2). However, the activity of VGEc and VLxEc was 5 and 10 fold greater than GGEc and GLxEc, respectively (M..A. Labow, S.B. Baim, T. Shenk, and A. J. Levine, Mol. and Cell. Biol. 10, 3343 [1990]). Thus, the DHR23α ligand-binding domain can be used to regulate the activities of viral, mammalian and bacterial DNA-binding or transactivation domains.
(§4) Illustrated in Table 2 is the transcriptional activation by receptor-LexA fusion proteins. […] The cells were incubated either with (+) or without (-) muristerone A. The fold induction was determined as described previously; the standard deviations are shown in parenthesis.

OC-33CO = experiment: Reporter OC-33CO lacking lex-operators, control effector plasmid without receptor cDNA; format: cell-based; details: SD in parentheses
From the text: as §1, §2

VXEc [2] = target: T1, VXEc; experiment: Lex-operator reporter X4C-33CO with VXEc; format: cell-based; details: receptor VXEc, SD in parentheses
From the text: as §3, §4

GGG = target: T2, GGG (Rattus norvegicus, UniProt P06536); experiment: Induction of GRE reporter G4M-77CO by GGG (glucocorticoid receptor) in 293 cells; details: normalized to hGH, SD in parentheses, 2880 min
T2 sequence (P06536 1-795): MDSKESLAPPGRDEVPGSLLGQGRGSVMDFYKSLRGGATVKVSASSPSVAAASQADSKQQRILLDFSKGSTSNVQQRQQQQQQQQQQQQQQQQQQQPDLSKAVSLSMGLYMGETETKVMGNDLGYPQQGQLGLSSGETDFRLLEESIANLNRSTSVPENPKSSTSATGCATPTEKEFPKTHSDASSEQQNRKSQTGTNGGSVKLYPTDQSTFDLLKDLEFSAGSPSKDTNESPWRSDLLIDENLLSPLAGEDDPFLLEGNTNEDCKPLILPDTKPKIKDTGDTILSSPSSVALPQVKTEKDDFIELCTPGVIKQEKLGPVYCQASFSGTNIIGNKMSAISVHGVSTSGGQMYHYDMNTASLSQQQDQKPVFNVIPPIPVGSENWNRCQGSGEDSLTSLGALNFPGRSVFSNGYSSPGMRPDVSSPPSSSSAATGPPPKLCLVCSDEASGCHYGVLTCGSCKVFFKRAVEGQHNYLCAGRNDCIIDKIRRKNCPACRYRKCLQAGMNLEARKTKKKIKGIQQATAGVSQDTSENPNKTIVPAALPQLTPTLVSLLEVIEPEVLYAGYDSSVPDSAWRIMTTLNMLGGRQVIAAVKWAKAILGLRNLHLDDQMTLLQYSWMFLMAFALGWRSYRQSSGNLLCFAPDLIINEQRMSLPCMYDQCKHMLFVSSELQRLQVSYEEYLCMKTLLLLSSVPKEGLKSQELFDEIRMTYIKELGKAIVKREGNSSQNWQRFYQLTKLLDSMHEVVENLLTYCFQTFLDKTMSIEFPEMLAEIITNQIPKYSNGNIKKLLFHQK

Sequence of EcEcEc (P19793 whole entry): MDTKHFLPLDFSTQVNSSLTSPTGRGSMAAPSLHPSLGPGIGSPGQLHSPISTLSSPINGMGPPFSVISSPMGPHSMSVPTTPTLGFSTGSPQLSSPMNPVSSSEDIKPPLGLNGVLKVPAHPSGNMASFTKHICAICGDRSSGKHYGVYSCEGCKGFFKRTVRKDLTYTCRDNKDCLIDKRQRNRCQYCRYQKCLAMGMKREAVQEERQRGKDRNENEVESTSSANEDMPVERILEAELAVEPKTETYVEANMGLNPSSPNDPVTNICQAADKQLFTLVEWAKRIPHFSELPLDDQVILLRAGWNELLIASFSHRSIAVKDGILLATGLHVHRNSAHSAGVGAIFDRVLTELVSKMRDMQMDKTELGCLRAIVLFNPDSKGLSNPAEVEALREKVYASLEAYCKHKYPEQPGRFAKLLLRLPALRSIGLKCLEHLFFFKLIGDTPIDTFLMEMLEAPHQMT
Sequence of EcEcEc (P34021 whole entry): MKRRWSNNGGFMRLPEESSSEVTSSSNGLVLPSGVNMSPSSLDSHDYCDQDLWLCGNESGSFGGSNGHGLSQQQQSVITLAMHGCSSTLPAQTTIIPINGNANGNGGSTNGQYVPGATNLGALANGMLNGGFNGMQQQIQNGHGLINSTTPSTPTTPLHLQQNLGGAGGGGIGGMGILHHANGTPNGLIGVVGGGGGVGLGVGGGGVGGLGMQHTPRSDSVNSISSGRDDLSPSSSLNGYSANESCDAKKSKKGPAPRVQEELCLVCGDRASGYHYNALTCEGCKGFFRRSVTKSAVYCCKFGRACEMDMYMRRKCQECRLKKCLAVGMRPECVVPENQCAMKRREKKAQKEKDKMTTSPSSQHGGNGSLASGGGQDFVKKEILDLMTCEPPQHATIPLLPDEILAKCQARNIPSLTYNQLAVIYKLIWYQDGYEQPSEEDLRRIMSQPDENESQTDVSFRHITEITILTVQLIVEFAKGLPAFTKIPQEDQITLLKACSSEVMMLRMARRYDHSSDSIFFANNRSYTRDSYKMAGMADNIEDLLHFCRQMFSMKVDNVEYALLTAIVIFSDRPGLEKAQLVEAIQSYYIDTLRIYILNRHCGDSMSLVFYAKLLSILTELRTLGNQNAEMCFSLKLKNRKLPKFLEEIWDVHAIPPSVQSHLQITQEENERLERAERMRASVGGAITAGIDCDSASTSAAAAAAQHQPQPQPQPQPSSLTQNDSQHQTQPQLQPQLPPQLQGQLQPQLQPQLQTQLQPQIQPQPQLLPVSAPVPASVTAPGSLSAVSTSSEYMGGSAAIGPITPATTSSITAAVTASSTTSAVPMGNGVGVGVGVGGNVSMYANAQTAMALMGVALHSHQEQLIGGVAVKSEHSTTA

`CC(C)CCC(O)[C@](C)(O)[C@H]1CC[C@@]2(O)C3=CC(=O)C4(O)CC(O)C(O)C[C@]4(C)[C@H]3C(O)C[C@]12C` (stereo partly drawn) [muristerone A, 2,3,5,11,14,20,22-Heptahydroxy-7-cholesten-6-one] was tested, and the fold induction (EcEcEc) was 0.9 (0.2) fold, the fold induction (X4C-33CO) was 1.1 (0.3) fold and the fold induction (VXEc [1]) was 1.0 (0.2) fold. For the same compound, the fold induction (OC-33CO) was 1.1 (0.4) fold, the fold induction (VXEc [2]) was 563 (61) fold and the fold induction (GGG) was 1.0 (0.3) fold.
